“Also recorded” adds a separate entry of the source.
What was measured:
[1] = system: Salmonella (five Salmonella enterica serovars); assay: Cat kibble challenge with dried five strain Salmonella cocktail inoculum; format: cell-based
Protocol: (§1) One ml of each Salmonella culture was separately inoculated into a beaker containing tempered (ambient), sterilized MBM which was then incubated at 37° C. for 48 hours. Inoculated MBM was dispensed (approx. 200 g) into sterile 250 ml centrifuge bottles and centrifuged at 5,000 rpm for 10 minutes. The supernatant was decanted and autoclaved for disposal. The pellets were suspended in 10 ml TSB-20% glycerol. Suspensions (approximately 150-160 g) were transferred to sterilized 250 ml polycarbonate straight side wide mouth jars with lids (Nalgene, Thermo Scientific). Jars containing MBM-Salmonella suspensions were immediately frozen at −70° C. for 1 hour. Frozen MBM-Salmonella suspensions were lyophilized using a FreeZone-1 Liter benchtop freeze dry system (Labconco) (approx. 96 hours, −50° C.). Each lyophilized Salmonella culture was pulverized to a fine powder using a sterile mortar and pestle. Twenty g of each of the five lyophilized Salmonella cultures was combined in a sterile wide mouth glass jar to make the dried Salmonella cocktail inoculum. […] Solidified plates were incubated inverted at 37° C. for 16-18 hours. Visible colonies were counted and colony forming units per gram were calculated (CFU/g). […] Kibble and inoculum were mixed together for five minutes by hand in a plastic zip top bag, and allowed to rest for 1 hour prior to sampling. Coated, un-inoculated kibble was also included in the study and tested for Salmonella (direct plating and FDA BAM), total aerobic bacteria, mold and yeast counts, pH, percent moisture, and water activity. For each analysis time point challenged kibble was sampled in triplicate. Kibbles were stored at ambient temperature.
(§2) Challenged kibble samples bags were mixed thoroughly, then 5.00 g (±0.01) was aseptically weighed into a sterile plastic bag and diluted with 45 ml sterile Phosphate Buffer (Butterfield) diluent (BPB) containing (g/l) KH2PO4 34.0, pH adjusted to 7.2 with 1N sodium hydroxide and homogenized using a Stomacher (Seward Stomacher 80) for 1 minute and serially diluted in BPB for plating. The plates are poured with tempered (45° C.) XLD agar. After solidification, plates were inverted and placed in an incubator (37° C.). Colonies were counted and CFU/g was calculated. The counts for each triplicate sample were averaged and expressed as log CFU/g. Those samples of which were below the detection limit of <10 CFU/g were assigned 0 log CFU/g for the purpose of statistical analysis. Analysis of Variance using the LSD separation of means method was performed to analyze the data using StatGraphics software (StatPoint Technologies, Inc. Warrenton, Va.).
All procedures for the Phase 3 kibble challenge were conducted as described for Phase 2.

[2] = system: Salmonella (five Salmonella enterica serovars); assay: Dog kibble challenge with dried five strain Salmonella cocktail inoculum; format: cell-based
Protocol: as §1, §2
Dry dog palatants were formulated with fumaric acid or SBS to deliver 0.5% acid to the surface of the kibble. The effect of each acid on Salmonella challenged on the surface of dog kibble was examined. Dog kibbles were challenged with dried five strain Salmonella cocktail inoculum.
The effect of each acid on Salmonella challenged on the surface of dog kibble was examined. Dog kibbles were challenged with dried five strain Salmonella cocktail inoculum prep.

[3] = pH of fumaric acid-TSB solutions; format: physicochemical
Protocol: A 0.20% stock solution of fumaric acid was made by dissolving 0.100 g (w/v) fumaric acid in 50 ml sterile deionized water in a flask. The 0.20% stock was diluted 1:2 in sterile deionized water to obtain a 0.10% fumaric acid solution, which was then diluted 1:2 to obtain a 0.05% fumaric acid solution. Each fumaric acid stock solution (0.20%, 0.10% and 0.05%) was further diluted 1:2 in TSB (pH 4.9) to yield fumaric acid-TSB solutions of 0.100%, 0.050% and 0.025%. The pH of each fumaric-TSB solution was measured (Table 1). One hundred μl of each fumaric-TSB solution was added to triplicate wells containing 100 μl standardized inoculum. One hundred μl of untreated (0% fumaric) TSB (pH 4.9) was added to triplicate wells containing 100 μl standardized inoculum as a control. The microplate was placed in a Versamax Microplate Reader (Molecular Devices) (37° C.) with wavelength set to 600 nm. The optical density (OD600) was read every 2 hours for 48 hours.

[4] = pH of 5% (w/v) solution of cat palatant formulated with fumaric acid; format: physicochemical
Protocol: Preparation of palatant samples. Four samples of a cat palatant formulated with varying levels of fumaric acid (Table 6) were aseptically weighed in duplicate sterile 50 ml conical test tubes. To each test tube, 10 ml of sterile deionized water was added and mixed by vortex. The pH of a 5% (w/v) solution of each palatant was also measured (Table 6).

For O=C(O)/C=C/C(=O)O [Fumaric Acid, fumaric acid], the Salmonella ([1]; Table 4, 0.21% on cat kibble, day 0) was 2.79 ± 0.35^Aa log CFU/g, the Salmonella ([1]; Table 4, 0.21% on cat kibble, day 1) was 2.85 ± 0.07^Aa log CFU/g and the Salmonella ([1]; Table 4, 0.21% on cat kibble, day 8) was 2.02 ± 0.13^Bab log CFU/g. For the same compound, the Salmonella ([1]; Table 4, 0.21% on cat kibble, day 14) was 1.44 ± 0.24^Bbc log CFU/g, the Salmonella ([1]; Table 4, 0.21% on cat kibble, day 22) was 0.77 ± 0.39^Bc log CFU/g and the Salmonella ([1]; Table 5, 0.30% on cat kibble, day 0) was 2.44 ± 0.21^Aa log CFU/g. The Salmonella ([1]; Table 5, 0.30% on cat kibble, day 1) was 1.26 ± 0.14^Bab log CFU/g, the Salmonella ([1]; Table 5, 0.30% on cat kibble, day 5) was 0.57 ± 0.57^Bb log CFU/g and the Salmonella ([1]; Table 5, 0.41% on cat kibble, day 0) was 1.46 ± 0.09^Ba log CFU/g. The Salmonella ([1]; Table 5, 0.41% on cat kibble, day 1, below detection limit assigned 0) was 0.0 ± 0.0^Cb* log CFU/g, the Salmonella ([1]; Table 5, 0.41% on cat kibble, day 5, below detection limit assigned 0) was 0.0 ± 0.0^Bb* log CFU/g and the Salmonella ([1]; Table 12, 0.50% total acid on cat kibble, day 0) was 3.38 ± 0.02^Ba log CFU/g. For the same compound, the Salmonella ([1]; Table 12, 0.50% total acid on cat kibble, day 1) was 1.98 ± 0.02^Bb log CFU/g, the Salmonella ([1]; Table 12, 0.50% total acid on cat kibble, day 5) was 1.10 ± 0.10^Bc log CFU/g and the Salmonella ([1]; Table 12, 0.50% total acid on cat kibble, day 7) was 0.33 ± 0.33^Bd log CFU/g. For the same compound, the Salmonella ([1]; Table 12, 0.50% total acid on cat kibble, day 14) was 0.33 ± 0.33^Bd log CFU/g, the Salmonella ([1]; Table 12, 0.50% total acid on cat kibble, day 21) was 0.00 ± 0.00^Bd log CFU/g and the “Salmonella counts on challenged cat kibble vs control palatant (in words)” value ([1]; cat kibble challenge) was “significant efficacy against Salmonella spp; also recorded: significantly lower Salmonella counts; also recorded: demonstrated antimicrobial activity; also recorded: significant reduction in Salmonella count; also recorded: dose response”. The Salmonella counts ([1]; highest level of fumaric acid on cat kibble, after 1 day, detection limit) was less than 10 CFU/g, the Salmonella ([2]; Table 15, 0.50% on dog kibble, day 0) was 1.98 ± 0.14^Ca log CFU/g and the Salmonella ([2]; Table 15, 0.50% on dog kibble, day 1) was 1.10 ± 0.10^Cb log CFU/g. For the same compound, the Salmonella ([2]; Table 15, 0.50% on dog kibble, day 3) was 0.77 ± 0.39^Abc log CFU/g, the Salmonella ([2]; Table 15, 0.50% on dog kibble, day 7) was 0.33 ± 0.33^Bcd log CFU/g and the Salmonella ([2]; Table 15, 0.50% on dog kibble, day 9) was 0.33 ± 0.33^Bcd log CFU/g. The Salmonella ([2]; Table 15, 0.50% on dog kibble, day 14) was 0.00 ± 0.00^Bd log CFU/g, the Salmonella ([2]; Table 15, 0.50% on dog kibble, day 21) was 0.00 ± 0.00^Bd log CFU/g and the Salmonella ([2]; Table 17, total of 0.5% acid on dog kibble, day 0) was 1.99 ± 0.22^CDa log CFU/g. The Salmonella ([2]; Table 17, total of 0.5% acid on dog kibble, day 1) was 0.43 ± 0.43^Bb log CFU/g, the Salmonella ([2]; Table 17, total of 0.5% acid on dog kibble, day 6) was 0.00 ± 0.00^Bb log CFU/g and the Salmonella ([2]; Table 17, total of 0.5% acid on dog kibble, day 14) was 0.00 ± 0.00^Bb log CFU/g. The Salmonella ([2]; Table 17, total of 0.5% acid on dog kibble, day 21) was 0.00 ± 0.00^Bb log CFU/g, the “Salmonella counts on challenged dog kibble vs control palatant (in words)” value ([2]; dog kibble challenge) was “significantly lower Salmonella counts than the control and SBS formula” and the “pH in TSB” value ([3]; 0.025% fumaric acid) was 4.67. The “pH in TSB” value ([3]; 0.050% fumaric acid) was 4.42, the “pH in TSB” value ([3]; 0.100% fumaric acid) was 4.06 and the pH ([4]; cat palatant with 14% fumaric acid in formula) was 3.15. The pH ([4]; cat palatant with 20% fumaric acid in formula) was 3.01 and the pH ([4]; cat palatant with 27% fumaric acid in formula) was 2.93.

— patent publication US10070660B2, “Pet food palatability with antimicrobial properties based on organic acids” (KEMIN INDUSTRIES, INC., priority 2012, dated 2018)
